By melting point is commonly meant the temperature, or range, at which the solid turns liquid. `CC(O)c1occc(=O)c1O` (configuration not stated) gave a melting point of 131 to 132 °C.
The compound `CC1N(C)c2cc([N+](=O)[O-])ccc2C1(C)C` (configuration not stated) returned a melting point of 55 to 59 °C.
`CCOC(=O)C1=C(/C=C/N(C)C)C(CC)(C(=O)N(CC)CC)OC1=O` (configuration not stated) displayed a melting point of 105 °C.
For the compound `CC(C)(C)C(=O)c1c[nH]c2ncc(-c3cccc(N4CC5(COC5)C4)c3)nc12`, the melting point was in the range of 260 to 262 °C.
In the case of `COC(=O)Cc1ccc(C(=O)CN2CCN(c3ccncc3)CC2)cc1` it was 127 to 129 °C; in that of `CCOC(=O)c1cnc(Cl)nc1NCc1ccc(OC)c(Cl)c1`, 114 to 115 °C; in that of `CS(=O)(=O)c1ccc(-c2cnn(-c3cc(F)cc(F)c3)c(=O)c2-c2ccc(F)cc2)cc1`, 166 to 168 °C.
`Cc1ccc(-c2cn(C)cc(-c3cccc(C(F)(F)F)c3)c2=O)cc1Br` gave a melting point of 158 to 161 °C.
Turning to `COC(=O)C1(S(C)(=O)=O)C(C)NC(C)=CC1c1ccccc1S(=O)(=O)NN(C)C` (configuration not stated), the melting point fell in the range of 218 to 221 °C.
Compound `CS(=O)(=O)O[C@@H](CO)[C@H](Cc1ccccc1)NC(=O)OCc1ccccc1` yielded a melting point of 121 to 122 °C.
`O=C(C=P(c1ccccc1)(c1ccccc1)c1ccccc1)COc1ccccc1Cl` showed a melting point of 107 to 109 °C.
Consider `COc1nc(OS(=O)(=O)C(F)(F)F)cc2cccnc12`, for which the melting point was 99 to 101 °C.
Compound `CC(C)C[C@H](NC(=O)NCc1ccccc1)C(=O)N[C@@H](Cc1ccccc1)C(=O)CSCc1ccco1` returned a melting point of 95 to 97 °C.
Consider `O=[N+]([O-])c1ccc(N=C(NC(=S)NCc2cccnc2)c2ccccc2)cc1`, for which the melting point is 179 to 180 °C.
Consider `CCCCCCCCCCCCCCOc1cc(OCCCCCCCCCCCCCC)cc(C(=O)N(CC(=O)O)CC(=O)O)c1`, for which the melting point was in the range of 88 to 90 °C.
`CS(=O)(=O)c1ccc(-c2cc(C(F)(F)F)nn2-c2ccc(F)cc2)cc1F` returned a melting point of 228 to 229 °C.
For the compound `CCOC(=O)C=Cc1ccc2cc(C=CC(=O)OCC)ccc2c1`, the melting point fell in the range of 150 to 151 °C.
In the case of `Cc1cc(-n2cnnc2)cc(C=O)c1N` it was 250 to 252 °C.
The result for `CCOC(=O)C=Cc1ccc(Cl)cc1N(CC(=O)c1ccc(Cl)cc1)S(=O)(=O)c1ccc(C)cc1` reads 162 to 165 °C; that for `CC(C)Cn1nc(-c2ccc(C(F)(F)F)cc2)cc(CO)c1=O`, 146 °C; that for `CNS(=O)(=O)/C=C/c1ccc2[nH]cc(C3CCN(C)CC3)c2c1`, 190 to 192 °C.
`O=C(O)c1cc(F)cc(-c2cccc3cc(Cc4cc(F)cc(Cl)c4)sc23)c1`: the melting point fell in the range of 168 to 170 °C.
`Cc1oc(-c2ccccc2)nc1COc1cccc(CON=C(CCCCC(=O)O)c2ccccc2)c1` registered a melting point of 114 to 115 °C.
In the case of `O=C(Nc1cccc(Oc2ccccn2)c1)c1ccn2c1CSC2c1cccnc1` (configuration not stated) it was 132 °C; in that of `O=C(NC1(C(=O)O)CCCCC1)OCc1ccccc1`, 152 to 154 °C; in that of `CN(C)CCCNc1ccc(NCCCN(C)C)c2c1C(=O)c1c(O)ccc(O)c1C2=O`, 154 to 157 °C.
With `Cc1nc2c(cc1NC(=N)N=C=O)CCCCC2CO[N+](=O)[O-]` (configuration not stated), the melting point was in the range of 120 to 121 °C.
Compound `Cc1ccc(-c2n[nH]c(N)c2C#N)cc1` yielded a melting point of 173 to 178 °C.
The result for `CC(C)c1cccc(C(C)C)c1NC(=O)N(Cc1ccc(N(C)C)cc1)c1ccc(C(F)(F)F)cc1` reads 129 to 130 °C; that for `O=C(Nc1ccc(-n2nc(C(F)(F)F)cc2C(F)(F)F)cc1)c1cc(F)c(Cl)cc1F`, 160 to 162 °C; that for `CCOc1ccccc1-c1ncc(-c2nnn[nH]2)c(=O)[nH]1`, 289 to 290 °C.
The compound `O=C(CS(=O)c1cccs1)C12CC3CC(CC(C3)C1)C2` (configuration not stated) displayed a melting point of 114 to 116 °C.
In the case of `CS(=O)(=O)c1ccc(Br)cc1Br` it was 124 to 126 °C; in that of `CCCCCCCCCCCCCCCCC1CC(=O)N(NC(=O)CCc2cc(C(C)(C)C)c(O)c(C(C)(C)C)c2)C1=O` (configuration not stated), 85 °C.
`CC(NS(=O)(=O)c1cc(C(=O)Cl)ccc1Cl)c1ccccc1` (configuration not stated) yielded a melting point of 112 °C.
Take `Cn1nc(CO)nc1NCC(O)CCOc1cccc(CN2CCCCC2)c1` (configuration not stated): the melting point was 148 °C.
The result for `CN1C(=O)NC(Cc2ccccc2)C1=O` (configuration not stated) reads 172 °C; that for `CCCCc1cc2cccnc2[nH]1`, 46 to 47 °C; that for `Cc1ccc(C(OS(=O)(=O)c2c(C)cc(C)c(S(=O)(=O)OC(c3ccc(C)cc3)(C(F)(F)F)C(F)(F)F)c2C)(C(F)(F)F)C(F)(F)F)cc1`, 178 °C.
For `CS(=O)(=O)c1ccc(-c2cnn(-c3ccc(F)c(F)c3)c(=O)c2Oc2ccc(Br)cc2)cc1`, the melting point fell in the range of 196 to 199 °C.
On to `CCCC(CCOc1c(-c2ccc(S(C)(=O)=O)cc2)cnn(-c2ccc(F)cc2)c1=O)SC` (configuration not stated), for which the melting point lay within 90 to 92 °C.
The compound `Oc1cc2c(cc1O)OCC(c1cccc(C(F)(F)F)c1)C2` (configuration not stated) displayed a melting point of 139 to 141 °C.
Compound `CC(C)c1cc(Oc2ccc(Cl)cc2)nc(C(C)C)c1[N+](=O)[O-]` came in with a melting point of 102 to 104 °C.
Take `Oc1cccc(CN2CCOCC2)c1`: the melting point lay in the range of 113 to 115 °C.
Turning to `Cc1ccc(S(=O)(=O)C2CCCN(S(=O)(=O)c3ccc(C)cc3)C2)cc1` (configuration not stated), the melting point was 124 to 142 °C.
In turn, `Cc1oc(-c2ccccc2)nc1COc1nn(Cc2ccc(Oc3ccccc3)cc2)cc1C(N)=O` displayed a melting point of 158 to 159 °C.
In turn, `CCc1cccc(C)c1COc1cc(C(=O)N(C)C)cc2c1nc(C)n2C` had a melting point of 161 to 162 °C.
`O=c1cc(-c2ccoc2)c2ccc(S)cc2o1` came in with a melting point of 167 to 170 °C.
In the case of `COc1ccc(C(=O)N2CCc3cc(OCc4ccccc4)c(OC)cc3C2=O)cc1` it was 151 to 152 °C; in that of `CCCc1c(Oc2ccc(C(=O)O)cc2C(=O)O)ccc(C(C)=O)c1O`, 280 to 283 °C.
The result for `CCCc1nc2c(N)nc3cc(Br)ccc3c2n1NC(C)C` reads 226 to 228 °C.
The result for `O=C(O)c1cc(Cl)ccc1NC(=O)C(CS)Cc1ccccc1` (configuration not stated) reads 157 to 158 °C.
`NC(=O)n1cc(-c2ccc(Oc3ccc(N)cc3)cc2)cn1`: the melting point lay within 158 to 160 °C.
`FC(F)(F)c1cc(C#CCBr)cc(C(F)(F)F)c1` yielded a melting point of 30 to 31 °C.
In the case of `Nc1nc(-c2ccc(F)cc2)c(CCN2CCC(n3nnc4cc(F)ccc43)CC2)s1` it was 234 to 235 °C; in that of `CCOC(=O)Cn1cnc2c(N3CCOCC3)nc(NC(=O)C3CCCCC3)nc21`, 142 to 147 °C.
With `COc1ccc(Oc2c(C)noc2NS(=O)(=O)c2ccccc2)cc1`, the melting point was in the range of 128 to 130 °C.
`O=C(O)CCc1cc(C=Nc2ccccc2O)c(O)c(C=Nc2ccccc2O)c1` returned a melting point of 204 to 205 °C.
For `COc1cc(I)ccc1C(=O)O`, the melting point is 144 to 146 °C.
Regarding `CC(NC(=O)NCCCCC1CCSS1)C(=O)O` (configuration not stated), the melting point is 131 to 134 °C.
Consider `CN(C)Cc1cccc(Oc2ccc3c(c2)S(=O)(=O)NC2CCCN32)c1` (configuration not stated), for which the melting point came out at 122 °C.
In turn, `Cc1ccc2cc(-c3ccc(F)cc3F)ccc2n1` returned a melting point of 86 °C.

These data come from a melting point compilation (Tetko et al.; mined from patent text by program, amines drawn as free bases though some values may be those of a salt).
